ChEMBL document CHEMBL1201862, “PubChem BioAssay data set” (2004)
Activity calls are given as the source filed them. Rule as the data show it: actives have a measured IC50 and inactives only a lower limit.

Molecular target: Envelope glycoprotein gp160 (Human immunodeficiency virus 1, UniProt Q6QLK5)
Test: cell-free HIV fusion peptide-binding blockers – biochemical, uHTS, fluorescence dequenching, […] (AID 1986)

Sequence of Envelope glycoprotein gp160 (Q6QLK5 whole entry, the tested form may be a part): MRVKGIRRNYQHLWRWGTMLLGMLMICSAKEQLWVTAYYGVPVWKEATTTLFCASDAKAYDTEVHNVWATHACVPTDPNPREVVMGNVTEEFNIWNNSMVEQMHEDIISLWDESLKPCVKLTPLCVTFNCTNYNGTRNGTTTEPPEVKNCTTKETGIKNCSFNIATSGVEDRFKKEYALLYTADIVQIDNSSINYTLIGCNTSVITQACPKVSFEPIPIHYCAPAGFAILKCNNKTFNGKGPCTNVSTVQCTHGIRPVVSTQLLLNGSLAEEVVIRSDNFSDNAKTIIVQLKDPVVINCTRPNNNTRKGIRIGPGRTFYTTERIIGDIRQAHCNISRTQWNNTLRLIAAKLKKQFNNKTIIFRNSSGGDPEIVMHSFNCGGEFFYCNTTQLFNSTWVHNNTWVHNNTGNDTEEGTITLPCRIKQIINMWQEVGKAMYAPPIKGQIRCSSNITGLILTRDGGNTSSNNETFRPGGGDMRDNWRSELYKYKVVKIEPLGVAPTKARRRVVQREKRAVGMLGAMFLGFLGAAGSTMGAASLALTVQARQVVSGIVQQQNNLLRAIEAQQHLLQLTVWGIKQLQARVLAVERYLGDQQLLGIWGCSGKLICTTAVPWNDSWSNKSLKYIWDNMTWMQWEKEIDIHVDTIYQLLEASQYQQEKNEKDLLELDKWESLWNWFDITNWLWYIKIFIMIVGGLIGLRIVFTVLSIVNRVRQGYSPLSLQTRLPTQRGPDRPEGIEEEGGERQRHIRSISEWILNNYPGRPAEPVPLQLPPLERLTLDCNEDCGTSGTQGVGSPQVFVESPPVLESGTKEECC

Question: With COc1cc(/C=C(\C#N)c2nc3ccccc3s2)cc([N+](=O)[O-])c1O as the compound, how does the IC50 read?
Answer: 8.88 µM (active)
